Experiment [1] relates to Moenomycinase. Put plainly: Moenomycinase activity (activation / inhibition). The class given is biochemical, Bacillus spec. DSM 4675. From the text: The dissolved enzyme was further purified by chromatography. For anion exchange chromatography, the enzyme was bound to a column of DEAE-52 (Whatman) or MonoQHR-5-5 (Pharmacia) and then eluted with 0.2-1.0M NaCl. Presence of moenomycinase in the fractions was monitored by measuring the conversion of moenomycin A to MC, as described in Example 3, below. Further purification was achieved using hydrophobic chromatography. The enzyme was bound to phenylsepharose (Pharmacia), and was then eluted with 40% methanol. The enzyme was concentrated by ultrafiltration using an ultrafiltration membrane (Millipore) which retains molecules with molecular weights ≥10,000 Dalton.

Experiment [2] has as its system Str. pyogenes 77. Briefly: Agar dilution test, Mueller-Hinton agar (minimum inhibitory concentration). To be noted: Streptococcus pyogenes. The class given is cell-based. The protocol:
(§1) An agar dilution test with Mueller-Hinton agar was carried out to determine the antibacterial activities (Antibiotics in Laboratory Medicine, V. Lorian, Ed., Baltimore 1986, pages 1-10).
For orientation: In agar dilution, organisms are placed on agar that contains the substance at set levels.

Experiment [3] deals with Staph. aureus 503. The description is as above. The class given is cell-based. To be noted: Staphylococcus aureus. As to the method:
as §1

Experiment [4] relates to E. coli DC2. The experiment is described as above. To be noted: Escherichia coli. It counts as cell-based. As to the method: as §1
The target in experiment [5] is T1, transglycosylase (Escherichia coli, UniProt P02919). Put plainly: Transglycosylase assay (Izaki), inhibition of polymerization of the peptidoglycan-sugar chains. The class given is biochemical, E. coli K 12. To be noted: moenomycin A 20 μg/ml; concentration of MB not stated separately. As to the method: (§2) The inhibition of the polymerization of the peptidoglycan-sugar chains by the cleavage products was carried out by the assay described by Izaki (J. Biol. Chem. 243, 3180-3192, 1968) using lipid intermediates from the cell membrane of E. coli K 12.
T1 sequence (P02919 whole entry): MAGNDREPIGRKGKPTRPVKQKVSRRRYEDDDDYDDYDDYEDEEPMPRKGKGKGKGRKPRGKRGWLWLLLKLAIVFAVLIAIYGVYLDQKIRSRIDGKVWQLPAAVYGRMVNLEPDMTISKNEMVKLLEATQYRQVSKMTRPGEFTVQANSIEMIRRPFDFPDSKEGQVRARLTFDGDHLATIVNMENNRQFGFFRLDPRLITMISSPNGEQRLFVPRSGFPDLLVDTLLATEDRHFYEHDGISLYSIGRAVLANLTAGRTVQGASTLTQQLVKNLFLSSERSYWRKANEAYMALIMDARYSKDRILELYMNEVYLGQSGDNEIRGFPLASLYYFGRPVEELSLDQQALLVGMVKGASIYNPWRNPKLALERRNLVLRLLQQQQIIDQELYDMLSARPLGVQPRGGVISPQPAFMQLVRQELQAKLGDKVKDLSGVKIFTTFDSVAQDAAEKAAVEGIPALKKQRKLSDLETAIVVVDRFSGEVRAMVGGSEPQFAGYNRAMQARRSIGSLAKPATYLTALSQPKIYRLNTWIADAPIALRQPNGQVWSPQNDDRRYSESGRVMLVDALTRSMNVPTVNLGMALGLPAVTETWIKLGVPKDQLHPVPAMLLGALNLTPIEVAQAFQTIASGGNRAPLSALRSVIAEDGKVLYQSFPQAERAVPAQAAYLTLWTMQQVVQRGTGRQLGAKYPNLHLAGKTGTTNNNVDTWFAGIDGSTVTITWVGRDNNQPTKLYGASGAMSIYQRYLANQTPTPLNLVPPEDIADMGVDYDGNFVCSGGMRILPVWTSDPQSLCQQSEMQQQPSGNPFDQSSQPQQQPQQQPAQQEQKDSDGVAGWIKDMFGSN

Experiment [6] concerns the target T1, transglycosylase. Put plainly: Another study: inhibition of the transglycosylase reaction, in vitro peptidoglycan synthesis. It counts as biochemical, E. coli K 12. To be noted: Final Concentration 12.5 μg/l. As to the method: as §2
Results of another study of the inhibition of the transglycosylase reaction by moenomycin cleavage products in vitro is shown in the following Table. The values in the Table show the inhibition of peptidoglycan-sugar chain synthesis in vitro. Decahydro MB is an analog of MB that has no double bonds in the alkyl chain.

In experiment [7] the test system is Moenomycinase. Briefly: Moenomycinase kinetics (Km for substrate). It counts as biochemical, Bacillus spec. DSM 4675. To be noted: moenomycin A as substrate.
Experiment [8] has as its system biosynthesis of the peptidoglycan framework of the bacterial cell wall. The note with it: cited from earlier work.

In brackets after ≈: the same amount, converted by molar mass.

Regarding `CC(=O)OCC1=C(C(=O)O)N2C(=O)[C@@H](N)[C@H]2SC1` [7-aminocephalosporin acid (7-ACA), 7-aminocephalosporin acid], the inhibition of moenomycinase result in experiment [1] was “inhibited”.

As for `C=C(CC=C(C)CCC=C(C)C)CCC(C)(C)C=CCCC(C)=CCO[C@H](COP(=O)(O)O)C(=O)O` [MB], the MIC (as a rule, the smallest concentration in the dilution series that meets the test's criterion for growth inhibition) in experiment [2] is 3.12 µg/mL (≈ 5.93 µM); in experiment [3], 25 µg/mL (≈ 47.5 µM); in experiment [4] it was greater than 100 µg/mL. The “inhibition of the transglycosylase reaction” value in experiment [5] is recorded as 32.9%. Besides, the “% Inhibition of In Vitro Peptidoglycan Synthesis” value (“% Inhibition” for short) in experiment [6] came out at 94%.

On to `C=C(CC=C(C)CCC=C(C)C)CCC(C)(C)C=CCCC(C)=CCO[C@H](CO)C(=O)O` [MA], for which the MIC in experiment [2], in experiment [3] and in experiment [4] was greater than 100 µg/mL in each case. For the same compound, in experiment [6], the “% Inhibition” value turned out to be 67%.

For the compound `C=C(CC=C(C)CCC=C(C)C)CCC(C)(C)C=CCCC(C)=CCOC(COP(=O)(O)OC1OC(C(N)=O)C(C)(O)C(OC(N)=O)C1OC1OC(COC2OC(CO)C(O)C(O)C2O)C(OC2OC(C)C(OC3OC(C(=O)NC4=C(O)CCC4=O)C(O)C(O)C3O)C(O)C2NC(C)=O)C(O)C1NC(C)=O)C(=O)O` (stereo not shown) [moenomycin A], in experiment [7], the Km (commonly the concentration of substrate that gives half-maximal velocity) was in the range of 4 to 10 mM. In addition, the “inhibition of the biosynthesis of the peptidoglycan framework of the bacterial cell wall” value in experiment [8] is “inhibits”.

Turning to formalin, in experiment [1], the inhibition of moenomycinase entry is recorded as “inhibited”.

Regarding `CC(=O)OCC1=C(C(=O)O)N2C(=O)[C@@H](NC(=O)CCC[C@@H](N)C(=O)O)[C@H]2SC1` [Cephalosporin C], the inhibition of moenomycinase result in experiment [1] is “inhibited”.

For `CC(C)CCCC(C)CCC(C)CCC(C)(C)CCCCC(C)CCO[C@H](COP(=O)(O)O)C(=O)O` (stereo partly shown) [Decahydro MB], the “% Inhibition” value in experiment [6] came to 28%.

For the compound `O=C(O)CN(CCN(CC(=O)O)CC(=O)O)CC(=O)O` [EDTA], in experiment [1], the inhibition of moenomycinase entry is listed as “inhibited”.
